In patent US20230172867A1, “A METHOD FOR TREATING CANCER WITH AN ORAL DOSAGE FORM OF AN FGFR4 INHIBITOR” (Eisai R&D Management Co., Ltd., priority 2020, published 2023):
Several values for one entry are separate records, joined by “and”; a condition that tells them apart may be missing. Identical values can stand only once.

Test system: patients with HCC
Assay: Tumor response / efficacy in patients with HCC (RECIST 1.1/modified RECIST), trial NCT02834780
Assay type: in vivo, human
Conditions: for Clinical Benefit Rate (CBR)(CR+PR+Durable SD): durable SD = stable disease ≥ 17 weeks; for clinical benefit rate / confirmed ORR: 55 HCC patients with ≥ 2 prior lines of therapy; for clinical benefit rate (complete response + partial response + durable stable disease) / confirmed overall response rate (ORR): 90 patients with HCC; for median OS / median PFS: HCC patients with ≥ 2 prior lines of therapy; for median overall survival (OS) / median progression-free survival (PFS): all HCC patients
From the text: A description of the first in human clinical trial for H3B-6527 can be found at the ClinicalTrials.gov by searching for trial identifier NCT02834780. In summary, the trial included a study population having the following characteristics: Adult patients ≥18 years old with advanced HCC or ICC; Progression after at least one prior therapy; ECOG score of 0 or 1; Well compensated liver function; FGF19-positive (dose expansion phase only); Excluded if patients have significant active infections [except hepatitis B virus (HBV) and hepatitis C virus (HCV)], gastric or esophageal varices, or previous FGF19-FGFR4 targeted therapy.
Drug Administration and Dosage for Dose Escalation: H3B-6527 was administered orally QD or BID on a 21-day cycle. Dose escalation followed a standard 3+3 cohort design with the dose cohorts of 300, 600, 1000, and 1400 mg QD fasting or 500 and 700 mg BID fed. Patients in dose escalation phase were treated regardless of FGF19 status. Response determined by RECIST 1.1/modified RECIST every 6 weeks

[1] = Expansion 1000 mg QD Fasted (N=10)

## C=CC(=O)Nc1cc(N2CCN(CC)CC2)ccc1Nc1cc(N(C)C(=O)Nc2c(Cl)c(OC)cc(OC)c2Cl)ncn1 [H3B-6527, N-(2-((6-(3-(2,6-dichloro-3,5-dimethoxyphenyl)-1-methylureido)pyrimidin-4-yl)amino)-5-(4-ethylpiperazin-1-yl)phenyl)acrylamide]
300 mg QD Fasted (N=3)
  Best Overall Response: Complete Response (CR): 0 (0.0) n (%)
  Best Overall Response: Not Evaluable: 0 (0.0) n (%)
  Best Overall Response: Partial Response (PR): 0 (0.0) n (%)
  Best Overall Response: Progressive Disease (PD): 0 (0.0) n (%)
  Best Overall Response: Unknown: 0 (0.0) n (%)
  Objective Response Rate (CR+PR): 0 (0.0) n (%)
  Clinical Benefit Rate (CBR)(CR+PR+Durable SD): 1 (33.3) n (%)
600 mg QD Fasted (N=3)
  Best Overall Response: Complete Response (CR): 0 (0.0) n (%)
  Best Overall Response: Not Evaluable: 0 (0.0) n (%)
  Best Overall Response: Partial Response (PR): 0 (0.0) n (%)
  Best Overall Response: Progressive Disease (PD): 1 (33.3) n (%)
  Best Overall Response: Unknown: 0 (0.0) n (%)
  Objective Response Rate (CR+PR): 0 (0.0) n (%)
  Clinical Benefit Rate (CBR)(CR+PR+Durable SD): 2 (66.7) n (%)
1000 mg QD Fasted (N=7)
  Best Overall Response: Complete Response (CR): 0 (0.0) n (%)
  Best Overall Response: Not Evaluable: 0 (0.0) n (%)
  Best Overall Response: Partial Response (PR): 1 (14.3) n (%)
  Best Overall Response: Progressive Disease (PD): 0 (0.0) n (%)
  Best Overall Response: Unknown: 0 (0.0) n (%)
  Objective Response Rate (CR+PR): 1 (14.3) n (%)
  Clinical Benefit Rate (CBR)(CR+PR+Durable SD): 5 (71.4) n (%)
1400 mg QD Fasted (N=4)
  Best Overall Response: Complete Response (CR): 0 (0.0) n (%)
  Best Overall Response: Not Evaluable: 0 (0.0) n (%)
  Best Overall Response: Partial Response (PR): 1 (25.0) n (%)
  Best Overall Response: Progressive Disease (PD): 0 (0.0) n (%)
  Best Overall Response: Unknown: 0 (0.0) n (%)
  Objective Response Rate (CR+PR): 1 (25.0) n (%)
  Clinical Benefit Rate (CBR)(CR+PR+Durable SD): 3 (75.0) n (%)
BID group
  clinical benefit rate: 25.8%
  confirmed ORR: 0%
  clinical benefit rate (complete response + partial response + durable stable disease): 38%
  confirmed overall response rate (ORR): 0%
  median OS: 7.3 months
  median PFS: 2.8 months
  median overall survival (OS): 8.0 months
  median progression-free survival (PFS): 3.4 months
[1]
  Best Overall Response: Complete Response (CR): 0 (0.0) n (%)
  Best Overall Response: Not Evaluable: 0 (0.0) n (%)
  Best Overall Response: Partial Response (PR): 0 (0.0) n (%)
  Best Overall Response: Progressive Disease (PD): 1 (10.0) n (%)
  Best Overall Response: Unknown: 3 (30.0) n (%)
  Objective Response Rate (CR+PR): 0 (0.0) n (%)
  Clinical Benefit Rate (CBR)(CR+PR+Durable SD): 2 (20.0) n (%)
QD group
  clinical benefit rate: 45.8%
  confirmed ORR: 12.5%
  clinical benefit rate (complete response + partial response + durable stable disease): 52%
  confirmed overall response rate (ORR): 8.3%
  median OS: 10.6 months
  median PFS: 4.1 months
  median overall survival (OS): 11.1 months
  median progression-free survival (PFS): 4.1 months
Total (N=27), QD fasted
  Best Overall Response: Complete Response (CR): 0 (0.0) n (%)
  Best Overall Response: Not Evaluable: 0 (0.0) n (%)
  Best Overall Response: Partial Response (PR): 2 (7.4%) n (%) and 2 (7.4) n (%)
  Best Overall Response: Progressive Disease (PD): 2 (7.4) n (%)
  Best Overall Response: Unknown: 3 (11.1) n (%)
  Objective Response Rate (CR+PR): 2 (7.4) n (%)
  Clinical Benefit Rate (CBR)(CR+PR+Durable SD): 13 (48.1) n (%)
